{"source": "patent US9833497B2", "about": "“Human originated EGF domain proteins and use of the same” (CHENGDU SOURCEBIO LIMITED-LIABILITY COMPANY, priority 2013, dated 2017)", "type_in_all_cases": "cell-based", "key": {"E. coli BL21": {"test_system": "E. coli BL21", "assay": "MIC against Gram-negative bacteria: E. coli BL21", "conditions": "5×10^5 CFU/mL; for MIC (μg/mL) E. coli BL21: 10 h cultivation at 37° C.", "procedure,_shortened": "(§1)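 MIC = lowest concentration of recombinant protein showing no growth. Test proteins: purified human-derived EGF domain proteins, two-fold dilution series, three wells per concentration; inoculum 5×10^5 CFU/mL in LB; incubation 37° C with shaking at 175 rpm.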"}, "Moraxella catarrhalis": {"test_system": "Moraxella catarrhalis", "assay": "MIC against Gram-negative bacteria: Moraxella catarrhalis", "conditions": "5×10^5 CFU/mL; for MIC (μg/mL) M. catarrhalis: 10 h cultivation at 37° C.", "procedure,_shortened": "as §1"}, "Proteus mirabilis": {"test_system": "Proteus mirabilis", "assay": "MIC against Gram-negative bacteria: Proteus mirabilis", "conditions": "5×10^5 CFU/mL; for MIC (μg/mL) P. mirabilis: 10 h cultivation at 37° C.", "procedure,_shortened": "as §1"}, "E. coli DH5α": {"test_system": "E. coli DH5α", "assay": "Antibacterial activity: MIC and growth curve against E. coli DH5α in 96-well plate", "conditions": "minimal inhibitory concentration against E. coli DH5α; 96-well plate, 5×10^5 CFU/mL, 37° C., judged after 8 h", "procedure,_shortened": "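Log-phase bacteria (OD600 ~0.5) resuspended in LB at 5×10^5 CFU/mL, exposed to recombinant protein at 50, 25, 12.5 μg/mL final in triplicate, 37 °C shaking at 175 rpm. OD600 read every 30 min; MIC is lowest concentration showing no growth.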"}, "Aeromonas hydrophila": {"test_system": "Aeromonas hydrophila", "assay": "MIC against Gram-negative bacteria: Aeromonas hydrophila", "conditions": "5×10^5 CFU/mL; for MIC (μg/mL) A. hydrophila: 10 h cultivation at 37° C.", "procedure,_shortened": "as §1"}, "Citrobacter diversus": {"test_system": "Citrobacter diversus", "assay": "MIC against Gram-negative bacteria: Citrobacter diversus", "conditions": "5×10^5 CFU/mL; for MIC (μg/mL) C. diversus: 10 h cultivation at 37° C.", "procedure,_shortened": "as §1"}, "Pseudomonas aeruginosa": {"test_system": "Pseudomonas aeruginosa", "assay": "MIC against Gram-negative bacteria: Pseudomonas aeruginosa", "conditions": "5×10^5 CFU/mL; for MIC (μg/mL) P. aeruginosa: 10 h cultivation at 37° C.", "procedure,_shortened": "as §1"}, "Serratia marcescens": {"test_system": "Serratia marcescens", "assay": "MIC against Gram-negative bacteria: Serratia marcescens", "conditions": "5×10^5 CFU/mL; for MIC (μg/mL) S. marcescens: 10 h cultivation at 37° C.", "procedure,_shortened": "as §1"}, "Klebsiella pneumonia": {"test_system": "Klebsiella pneumonia", "assay": "MIC against Gram-negative bacteria: Klebsiella pneumonia", "conditions": "5×10^5 CFU/mL; for MIC (μg/mL) K. pneumonia: 10 h cultivation at 37° C.", "procedure,_shortened": "as §1"}, "Enterobacter cloacae": {"test_system": "Enterobacter cloacae", "assay": "MIC against Gram-negative bacteria: Enterobacter cloacae", "conditions": "5×10^5 CFU/mL; for MIC (μg/mL) E. cloacae: 10 h cultivation at 37° C.", "procedure,_shortened": "as §1"}, "Proteus vulgaris": {"test_system": "Proteus vulgaris", "assay": "MIC against Gram-negative bacteria: Proteus vulgaris", "conditions": "5×10^5 CFU/mL; for MIC (μg/mL) P. vulgaris: 10 h cultivation at 37° C.", "procedure,_shortened": "as §1"}}}
{"substance": "PRT850 (CQCHGHVDPVKTPKICKPESGECINCLHNTTGFWCENCLEGYVHDLEGNCIK; listed as Homo sapiens)", "values": [{"measurement": "MIC (μg/mL) E. coli BL21", "setting": "E. coli BL21", "value": 25, "unit": "µg/mL"}, {"measurement": "MIC (μg/mL) M. catarrhalis", "setting": "Moraxella catarrhalis", "value": 50, "unit": "µg/mL"}, {"measurement": "MIC (μg/mL) P. mirabilis", "setting": "Proteus mirabilis", "value": 12.5, "unit": "µg/mL"}, {"measurement": "MIC", "setting": "E. coli DH5α", "value": 50, "unit": "µg/mL"}, {"measurement": "MIC (μg/mL) A. hydrophila", "setting": "Aeromonas hydrophila", "value": 50, "unit": "µg/mL"}, {"measurement": "MIC (μg/mL) C. diversus", "setting": "Citrobacter diversus", "value": 12.5, "unit": "µg/mL"}, {"measurement": "MIC (μg/mL) P. aeruginosa", "setting": "Pseudomonas aeruginosa", "value": 12.5, "unit": "µg/mL"}, {"measurement": "MIC (μg/mL) S. marcescens", "setting": "Serratia marcescens", "value": 50, "unit": "µg/mL"}, {"measurement": "MIC (μg/mL) K. pneumonia", "setting": "Klebsiella pneumonia", "value": 50, "unit": "µg/mL"}, {"measurement": "MIC (μg/mL) E. cloacae", "setting": "Enterobacter cloacae", "value": 12.5, "unit": "µg/mL"}, {"measurement": "MIC (μg/mL) P. vulgaris", "setting": "Proteus vulgaris", "value": 25, "unit": "µg/mL"}]}
{"substance": "PRT501 (CGCNPVGSASDEPCTGPCVCKENVEGKACDRCKPGFYNLKEKNPRGCSE; listed as Homo sapiens)", "values": [{"measurement": "MIC against E. coli BL21", "setting": "E. coli BL21; 96-well plate, 37° C., 10 h", "value": 25, "unit": "µg/mL"}, {"measurement": "MIC against M. catarrhalis", "setting": "Moraxella catarrhalis; 96-well plate, 37° C., 10 h", "value": 25, "unit": "µg/mL"}, {"measurement": "MIC against P. mirabilis", "setting": "Proteus mirabilis; 96-well plate, 37° C., 10 h", "value": 12.5, "unit": "µg/mL"}, {"measurement": "MIC", "setting": "E. coli DH5α", "value": 12.5, "unit": "µg/mL"}, {"measurement": "MIC against A. hydrophila", "setting": "Aeromonas hydrophila; 96-well plate, 37° C., 10 h", "value": 25, "unit": "µg/mL"}, {"measurement": "MIC against C. diversus", "setting": "Citrobacter diversus; 96-well plate, 37° C., 10 h", "value": 12.5, "unit": "µg/mL"}, {"measurement": "MIC against P. aeruginosa", "setting": "Pseudomonas aeruginosa; 96-well plate, 37° C., 10 h", "value": 50, "unit": "µg/mL"}, {"measurement": "MIC against S. marcescens", "setting": "Serratia marcescens; 96-well plate, 37° C., 10 h", "value": 12.5, "unit": "µg/mL"}, {"measurement": "MIC against K. pneumonia", "setting": "Klebsiella pneumonia; 96-well plate, 37° C., 10 h", "value": 25, "unit": "µg/mL"}, {"measurement": "MIC against E. cloacae", "setting": "Enterobacter cloacae; 96-well plate, 37° C., 10 h", "value": 12.5, "unit": "µg/mL"}, {"measurement": "MIC against P. vulgaris", "setting": "Proteus vulgaris; 96-well plate, 37° C., 10 h", "value": 25, "unit": "µg/mL"}]}
{"substance": "PRT641 (QAEECGILNGCENGRCVRVQEGYTCDCFDGYHLDTAK; listed as Homo sapiens)", "values": [{"measurement": "MIC E. coli BL21", "setting": "E. coli BL21; 96-well plate, 37° C., 10 h", "value": 25, "unit": "µg/mL"}, {"measurement": "MIC M. catarrhalis", "setting": "Moraxella catarrhalis; 96-well plate, 37° C., 10 h", "value": 25, "unit": "µg/mL"}, {"measurement": "MIC P. mirabilis", "setting": "Proteus mirabilis; 96-well plate, 37° C., 10 h", "value": 50, "unit": "µg/mL"}, {"measurement": "MIC", "setting": "E. coli DH5α", "value": 50, "unit": "µg/mL"}, {"measurement": "MIC A. hydrophila", "setting": "Aeromonas hydrophila; 96-well plate, 37° C., 10 h", "value": 25, "unit": "µg/mL"}, {"measurement": "MIC C. diversus", "setting": "Citrobacter diversus; 96-well plate, 37° C., 10 h", "value": 12.5, "unit": "µg/mL"}, {"measurement": "MIC P. aeruginosa", "setting": "Pseudomonas aeruginosa; 96-well plate, 37° C., 10 h", "value": 12.5, "unit": "µg/mL"}, {"measurement": "MIC S. marcescens", "setting": "Serratia marcescens; 96-well plate, 37° C., 10 h", "value": 50, "unit": "µg/mL"}, {"measurement": "MIC K. pneumonia", "setting": "Klebsiella pneumonia; 96-well plate, 37° C., 10 h", "value": 25, "unit": "µg/mL"}, {"measurement": "MIC E. cloacae", "setting": "Enterobacter cloacae; 96-well plate, 37° C., 10 h", "value": 50, "unit": "µg/mL"}, {"measurement": "MIC P. vulgaris", "setting": "Proteus vulgaris; 96-well plate, 37° C., 10 h", "value": 12.5, "unit": "µg/mL"}]}
{"substance": "PRT811 (FGKNCSFSCSCQNGGTCDSVTGACRCPPGVSGTNCE; listed as Homo sapiens)", "values": [{"measurement": "MIC (μg/mL) E. coli BL21", "setting": "E. coli BL21", "value": 25, "unit": "µg/mL"}, {"measurement": "MIC (μg/mL) M. catarrhalis", "setting": "Moraxella catarrhalis", "value": 12.5, "unit": "µg/mL"}, {"measurement": "MIC (μg/mL) P. mirabilis", "setting": "Proteus mirabilis", "value": 25, "unit": "µg/mL"}, {"measurement": "MIC", "setting": "E. coli DH5α", "value": 12.5, "unit": "µg/mL"}, {"measurement": "MIC (μg/mL) A. hydrophila", "setting": "Aeromonas hydrophila", "value": 12.5, "unit": "µg/mL"}, {"measurement": "MIC (μg/mL) C. diversus", "setting": "Citrobacter diversus", "value": 12.5, "unit": "µg/mL"}, {"measurement": "MIC (μg/mL) P. aeruginosa", "setting": "Pseudomonas aeruginosa", "value": 12.5, "unit": "µg/mL"}, {"measurement": "MIC (μg/mL) S. marcescens", "setting": "Serratia marcescens", "value": 25, "unit": "µg/mL"}, {"measurement": "MIC (μg/mL) K. pneumonia", "setting": "Klebsiella pneumonia", "value": 12.5, "unit": "µg/mL"}, {"measurement": "MIC (μg/mL) E. cloacae", "setting": "Enterobacter cloacae", "value": 12.5, "unit": "µg/mL"}, {"measurement": "MIC (μg/mL) P. vulgaris", "setting": "Proteus vulgaris", "value": 25, "unit": "µg/mL"}]}
{"substance": "PRT257 (CTDGHRGGCSEHANCLSTGLNTRRCECHAGYVGDGLQC; listed as Homo sapiens)", "values": [{"measurement": "MIC (μg/mL) E. coli BL21", "setting": "E. coli BL21", "value": 25, "unit": "µg/mL"}, {"measurement": "MIC (μg/mL) M. catarrhalis", "setting": "Moraxella catarrhalis", "value": 25, "unit": "µg/mL"}, {"measurement": "MIC (μg/mL) P. mirabilis", "setting": "Proteus mirabilis", "value": 12.5, "unit": "µg/mL"}, {"measurement": "MIC", "setting": "E. coli DH5α", "value": 12.5, "unit": "µg/mL"}, {"measurement": "MIC (μg/mL) A. hydrophila", "setting": "Aeromonas hydrophila", "value": 25, "unit": "µg/mL"}, {"measurement": "MIC (μg/mL) C. diversus", "setting": "Citrobacter diversus", "value": 12.5, "unit": "µg/mL"}, {"measurement": "MIC (μg/mL) P. aeruginosa", "setting": "Pseudomonas aeruginosa", "value": 12.5, "unit": "µg/mL"}, {"measurement": "MIC (μg/mL) S. marcescens", "setting": "Serratia marcescens", "value": 12.5, "unit": "µg/mL"}, {"measurement": "MIC (μg/mL) K. pneumonia", "setting": "Klebsiella pneumonia", "value": 25, "unit": "µg/mL"}, {"measurement": "MIC (μg/mL) E. cloacae", "setting": "Enterobacter cloacae", "value": 12.5, "unit": "µg/mL"}, {"measurement": "MIC (μg/mL) P. vulgaris", "setting": "Proteus vulgaris", "value": 12.5, "unit": "µg/mL"}]}
